# “Also recorded” adds a separate entry of the source. Read-outs that look alike come from different tables or passages of the source.
# Columns and labels:
# [1] = system: Mycobacterium tuberculosis pMSp12::GFP; assay: microbe, parasite or virus in culture; format: cell-based
# [2] = system: 3D7 strain of Plasmodium falciparum; assay: In vitro antiplasmodial assay (pLDH); format: cell-based
# [3] = system: Trypanosoma brucei brucei 427 trypomastigotes; assay: In vitro anti-trypanosomal assay; format: cell-based; settings: 24 h, 427 strain, read-out: IC50 T. b. brucei
# Description: Trypanosoma brucei brucei 427 trypomastigotes were cultured in iscove’s modified Dulbecco’s medium (IMDM; Lonza, Basel, Switzerland) supplemented with 10% fetal calf serum, HMI-9 supplement, hypoxanthine and penicillin/streptomycin at 37 °C in a 5% CO2 incubator. Serial dilutions of test compounds were incubated with the parasites in 96-well plates for 24 h and residual parasite viability in the wells determined as previously reported.
# HEK293 cells = assay: In vitro cytotoxicity assay; format: cell-based; settings: Homo sapiens, HEK293, read-out: IC50 HEK293
# S. aureus (MRSA) = assay: microbe, parasite or virus in culture; format: cell-based; settings: Staphylococcus aureus, read-out: MIC against S. aureus (MRSA)
# A. baumanni = assay: Antibacterial broth microdilution, A. baumanni; format: cell-based; settings: read-out: MIC against A. baumanni
# [4] = system: ESKAPE (E. faecium, A. baumanni, K. pneumoniae, P. aeruginosa, S. aureus) pathogens; assay: Antibacterial broth microdilution, ESKAPE pathogens; format: cell-based; settings: colistin and vancomycin as standards
# [5] = Mycobacterium tuberculosis, H37RV, 336 h
# [6] = Plasmodium falciparum, 3D7, 48 h, read-out: IC50 Pf 3D7, chloroquine sensitive strain 3D7, 48 h, pLDH
# [7] = read-out: IC50 Pf 3D7, chloroquine sensitive strain 3D7, 48 h, pLDH
SMILES,MIC90 [1] [µM],"MIC90 [1, 5] [µM]","IC50 [2, 6] [µM]",IC50 ([3]; Trypanosoma brucei) [µM],IC50 (HEK293 cells) [mg/L],"IC50 [2, 7] [µM]",IC50 [3] [µM],MIC (S. aureus (MRSA)) [mg/L],MIC (A. baumanni) [mg/L],activity against ESKAPE pathogens (in words) [4],"IC50 Pf 3D7 ([2]; chloroquine sensitive strain 3D7, 48 h, pLDH)",melting point [°C]
"CCOC(=O)c1cn(CC)c2ccc(Cn3cnc4c3c(=O)n(C)c(=O)n4C)cc2c1=O [Compound 3a, Ethyl 6-((1,3-dimethyl-2,6-dioxo-1,2,3,6-tetrahydro-7H-purin-7-yl)methyl)-1-ethyl-4-oxo-1,4-dihydroquinolone-3-carboxylate]",>125,> 125,> 20,> 20,> 32,,,,,,,
"CCOC(=O)c1cn(Cc2ccccc2)c2ccc(Cn3cnc4c3c(=O)n(C)c(=O)n4C)cc2c1=O [Compound 3c, Ethyl 1-benzyl-6-((1,3-dimethyl-2,6-dioxo-1,2,3,6-tetrahydro-7H-purin-7-yl)methyl)-4-oxo-1,4-dihydroquinolone-3-carboxylate]",,> 125,> 20,14.5,> 32,,,,,,,
"CCOC(=O)c1cn(Cc2ccc(Br)cc2)c2ccc(Cn3cnc4c3c(=O)n(C)c(=O)n4C)cc2c1=O [Compound 3d, Ethyl 1-(4-bromobenzyl)-6-((1,3-dimethyl-2,6-dioxo-1,2,3,6-tetrahydro-7H-purin-7-yl)methyl)-4-oxo-1,4-dihydroquinolone-3-carboxylate]",,15.6,13.6,21.6,> 32,,,,,,,
"CCn1cc(C(=O)NCCNCCO)c(=O)c2cc(Cn3cnc4c3c(=O)n(C)c(=O)n4C)ccc21 [Compound 4a, 6-((1,3-Dimethyl-2,6-dioxo-1,2,3,6-tetrahydro-7H-purin-7-yl)methyl)-1-ethyl-N-(2-((2-hydroxyethyl)amino)ethyl)-4-oxo-1,4-dihydroquinolone-3-carboxamide]",>125,> 125,> 20,> 20,> 32,,,,,,,
"CCn1cc(C(=O)NCCOCCO)c(=O)c2cc(Cn3cnc4c3c(=O)n(C)c(=O)n4C)ccc21 [Compound 4b, 6-((1,3-Dimethyl-2,6-dioxo-1,2,3,6-tetrahydro-7H-purin-7-yl)methyl)-1-ethyl-N-(2-(2-hydroxyethoxy)ethyl)-4-oxo-1,4-dihydroquinolone-3-carboxamide]",,> 125,> 20,> 20,> 32,,,,,,,
"Cn1c(=O)c2c(ncn2Cc2ccc3c(c2)c(=O)c(C(=O)NCCNCCO)cn3Cc2ccccc2)n(C)c1=O [Compound 4d, 1-Benzyl-6-((1,3-dimethyl-2,6-dioxo-1,2,3,6-tetrahydro-7H-purin-7-yl)methyl)-N-(2-((2-hydroxyethyl)amino)ethyl)-4-oxo-1,4-dihydroquinolone-3-carboxamide]",,7.9,≥ 25,> 20,> 32,> 20,,,,,,
"Cn1c(=O)c2c(ncn2Cc2ccc3c(c2)c(=O)c(C(=O)NCCOCCO)cn3Cc2ccccc2)n(C)c1=O [Compound 4e, 1-Benzyl-6-((1,3-dimethyl-2,6-dioxo-1,2,3,6-tetrahydro-7H-purin-7-yl)methyl)-N-(2-(2-hydroxyethoxy)ethyl)-4-oxo-1,4-dihydroquinolone-3-carboxamide]",,> 125,≥ 25,26.8,> 32,> 20,,,,,,
"COCCNC(=O)c1cn(Cc2ccccc2)c2ccc(Cn3cnc4c3c(=O)n(C)c(=O)n4C)cc2c1=O [Compound 4f, 1-Benzyl-6-((1,3-dimethyl-2,6-dioxo-1,2,3,6-tetrahydro-7H-purin-7-yl)methyl)-N-(2-methoxyethyl)-4-oxo-1,4-dihydroquinolone-3-carboxamide]",,> 125,> 20,> 20,> 32,,,,,,,
"Cn1c(=O)c2c(ncn2Cc2ccc3c(c2)c(=O)c(C(=O)NCCNCCO)cn3Cc2ccc(Br)cc2)n(C)c1=O [Compound 4g, 1-(4-Bromobenzyl)-6-((1,3-dimethyl-2,6-dioxo-1,2,3,6-tetrahydro-7H-purin-7-yl)methyl)-N-(2-((2-hydroxyethyl)amino)ethyl)-4-oxo-1,4-dihydroquinolone-3-carboxamide]",,7.9,,> 20,> 32,,,,,,,
"Cn1c(=O)c2c(ncn2Cc2ccc3c(c2)c(=O)c(C(=O)NCCOCCO)cn3Cc2ccc(Br)cc2)n(C)c1=O [Compound 4h, 1-(4-Bromobenzyl)-6-((1,3-dimethyl-2,6-dioxo-1,2,3,6-tetrahydro-7H-purin-7-yl)methyl)-N-(2-(2-hydroxyethoxy)ethyl)-4-oxo-1,4-dihydroquinolone-3-carboxamide]",>125,> 125,0.68,> 20,> 32,,,,,,,
"CCOC(=O)c1cn(CC)c2ccc(OCc3ccc(C(F)(F)F)cc3)cc2c1=O [Compound 7a, Ethyl 1-ethyl-4-oxo-6-((4-(trifluoromethyl)benzyl)oxy)-1,4-dihydroquinolone-3-carboxylate]",,> 125,,18.5,> 32,,,,,,,
"CCn1cc(C(=O)NCCOCCO)c(=O)c2cc(OCc3ccc(C(F)(F)F)cc3)ccc21 [Compound 8a, 1-Ethyl-N-(2-(2-hydroxyethoxy)ethyl)-4-oxo-6-((4-(trifluoromethyl)benzyl)oxy)-1,4-dihydroquinolone-3-carboxamide]",,7.8,< 10,14.1,> 32,6.8,,,,,,
"CCn1cc(C(=O)NCCNCCO)c(=O)c2cc(OCc3ccc(C(F)(F)F)cc3)c(Cl)cc21 [Compound 8c, 7-Chloro-1-ethyl-N-(2-((2-hydroxyethyl)amino)ethyl)-4-oxo-6-((4-(trifluoromethyl)benzyl)oxy)-1,4-dihydroquinolone-3-carboxamide]",,,,< 2,> 32,,1.5,16,32,"moderate to poor activity; also recorded: moderate to weak, narrow spectrum activity",,
"CCn1cc(C(=O)NCCOCCO)c(=O)c2cc(OCc3ccc(C(F)(F)F)cc3)c(Cl)cc21 [Compound 8d, 7-Chloro-1-ethyl-N-(2-(2-hydroxyethoxy)ethyl)-4-oxo-6-((4-(trifluoromethyl)benzyl)oxy)-1,4-dihydroquinolone-3-carboxamide]",,> 125,> 20,> 20,> 32,,,,,,,
"O=C(NCCNCCO)c1cn(Cc2ccccc2)c2cc(Cl)c(OCc3ccc(C(F)(F)F)cc3)cc2c1=O [Compound 8g, 1-Benzyl-7-chloro-N-(2-((2-hydroxyethyl)amino)ethyl)-4-oxo-6-((4-(trifluoromethyl)benzyl)oxy)-1,4-dihydroquinolone-3-carboxamide]",0.9,0.9 to 2,0.4,,> 32,0.46,,32,,"moderate to poor activity; also recorded: moderate to weak, narrow spectrum activity",,
"O=C(NCCOCCO)c1cn(Cc2ccccc2)c2cc(Cl)c(OCc3ccc(C(F)(F)F)cc3)cc2c1=O [Compound 8h, 1-Benzyl-7-chloro-N-(2-(2-hydroxyethoxy)ethyl)-4-oxo-6-((4-(trifluoromethyl)benzyl)oxy)-1,4-dihydroquinolone-3-carboxamide]",,16,> 20,> 20,> 32,,,,,,,
"CCOC(=O)c1cn(CC)c2ccc([N+](=O)[O-])cc2c1=O [Compound 11, Ethyl 1-ethyl-6-nitro-4-oxo-1,4-dihydroquinolone-3-carboxylate]",,31.3,> 20,> 20,> 32,,,,,,,
"CCOC(=O)c1cn(Cc2ccccc2)c2ccc(N)cc2c1=O [Compound 12, Ethyl 6-amino-1-benzyl-4-oxo-1,4-dihydroquinolone-3-carboxylate]",,> 125,10,> 20,> 32,,,,,,,
"CCOC(=O)c1cn(Cc2ccccc2)c2ccc(/N=C/c3ccc([N+](=O)[O-])o3)cc2c1=O [Compound 13, Ethyl-1-benzyl-6-(((5-nitrofuran-2-yl)methylene)amino)-4-oxo-1,4-dihydroquinolone-3-carboxylate]",8.0,8,< 10,5.2,> 32,6.5,,,16,"moderate to poor activity; also recorded: moderate to weak, narrow spectrum activity",,
"Nc1ccc2c(c1)c(=O)c(C(=O)NCCOCCO)cn2Cc1ccccc1 [Compound 14, 6-Amino-1-benzyl-N-(2-(2-hydroxyethoxy)ethyl)-4-oxo-1,4-dihydroquinolone-3-carboxamide]",>125,> 125,> 20,> 20,> 32,,,,,,complete loss of antiplasmodial activity,
"CCn1cc(C(=O)OC)c(=O)c2cc(C(=O)/C=C/c3c(Cl)cccc3Cl)ccc21 [Compound 16, Methyl (E)-Methyl-6-(3-(2,6-dichlorophenyl)acryloyl)-1-ethyl-4-oxo-1,4-dihydroquinolone-3-carboxylate]",0.9,0.9 to 2,11.7,< 2,> 32,,1.5,,,,,247 to 249
